Laboratory results from PubChem BioAssay AID1549 (Sanford-Burnham Center for Chemical Genomics, 2009).
The source made the active and inactive calls. How the calls were made is not given here.

Biological target: Influenza A virus M2 proton channel (A/TW/4845/1999 H1N1)
Assay: M2 proton channel binding, NMR based, influenza A virus H1N1 strain (AID 1549)
Settings: NMR binding screen, M2 protein

SMILES	Kd
CC(NC(=O)c1cccnc1)c1ccc2c(c1)OCO2 (centres undefined)	> 4 mM (inactive)
CNC(=O)C1COc2ccccc2O1 (centres undefined)	> 4 mM (inactive)
CCOC(=O)c1csc(N)n1	> 4 mM (inactive)
C=CCCCCCCCCCCCC(O)CC(O)COC(C)=O (centres undefined) (tested in a mixture with another compound)	> 4 mM (inactive)
Cc1c(N=CN2CCOCC2)c(=O)n(C)c(=O)n1C	> 4 mM (inactive)
CCOc1cc(S(=O)(=O)n2nc(C)cc2C)ccc1F	> 4 mM (inactive)
Nc1ncnc2c1ncn2C1C[C@H](O)[C@@H](CO)O1 (some centres undefined)	> 4 mM (inactive)
NS(=O)(=O)c1ccc2c3c(cccc13)C(=O)N2	> 4 mM (inactive)
O=C(Cc1c(F)cccc1Cl)Nc1cccnc1	> 4 mM (inactive)
COc1ccc(S(=O)(=O)Nc2ccccn2)c(C)c1C	> 4 mM (inactive)
CCCCCCCCCCCCCCC(C(=O)O)C(O)(CC(=O)OC)C(=O)O (centres undefined)	> 4 mM (inactive)
CNC(=O)Nc1cccc(C(F)(F)F)c1	> 4 mM (inactive)
O=C(O)c1csc(-c2cccs2)n1	> 4 mM (inactive)
c1cc2c(cc1[C@H]1OC[C@H]3[C@@H]1CO[C@H]3c1ccc3c(c1)OCO3)OCO2	> 4 mM (inactive)
O=C(O)c1cccnc1Oc1ccccc1	> 4 mM (inactive)
O=C(Nc1ccon1)c1cc2c(s1)CCCC2	> 4 mM (inactive)
O=C(O)CNC(=O)c1ccc([N+](=O)[O-])cc1	> 4 mM (inactive)
COC(=O)c1c[nH]c2ccccc12	> 4 mM (inactive)
Cc1cc(=O)n(C(N)=S)[nH]1	> 4 mM (inactive)
O=C(O)CCCN1CNC(=S)NC1	> 4 mM (inactive)
COc1cc2[nH]c(=S)n(C)c(=O)c2cc1OC	> 4 mM (inactive)
CC(=O)NC(C)C12CC3CC(CC(C(=O)O)(C3)C1)C2 (centres undefined)	> 4 mM (inactive)
CC(=O)O[C@H]1C[C@@H](OC(C)=O)C(C)(C)C2C[C@@H](O)[C@]3(C)C(CC[C@@]4(C)[C@H](c5ccoc5)OC(=O)[C@H]5O[C@]543)[C@]21C (some centres undefined)	> 4 mM (inactive)
CC12CC[C@H](CC1=O)C2(C)C	> 4 mM (inactive)

SMILES	Kd
Cn1ncc(CO)c1-c1ccccc1	> 4 mM (inactive)
CC1=CC2C(CC1=O)C(C)=CCC2C(C)C (centres undefined)	> 4 mM (inactive)
Cc1nc2ccc(NC(=O)N3CCOCC3)cc2s1	> 4 mM (inactive)
Nc1nc2ccc(C(=O)O)cc2s1	> 4 mM (inactive)
Nc1nc(SCc2ccc3c(c2)OCCO3)n[nH]1	> 4 mM (inactive)
C=C(C)[C@@H]1[C@H]2OC(=O)[C@@H]1[C@]1(O)C[C@H]3O[C@]34C(=O)O[C@H]2[C@]14C	> 4 mM (inactive)
O=C(O)CSCC(=O)Nc1cccc(O)c1	> 4 mM (inactive)
CSc1ccc(C(=S)N2CCN(C)CC2)cc1	> 4 mM (inactive)
N[C@@H](Cc1ccc(O)c(O)c1)C(=O)O	> 4 mM (inactive)
O=C(NCc1cccc(Cl)c1)c1ccco1	> 4 mM (inactive)
N#CCc1nc2ccccc2s1	> 4 mM (inactive)
NCc1ccc2c(c1)OCCCO2	> 4 mM (inactive)
Cc1ccc(SCc2nc(-c3ccncc3)no2)cc1	> 4 mM (inactive)
COc1cc(/C=C/C(=O)O)ccc1O	> 4 mM (inactive)
CN(Cc1nc2ccccc2n1C)S(C)(=O)=O	> 4 mM (inactive)
O=C1CCN(c2ccccc2)N1	> 4 mM (inactive)
Cc1cc(O)c(C)c(O)c1C(=O)O	> 4 mM (inactive)
O=CN1CCN(C(=O)c2ccccc2F)CC1	> 4 mM (inactive)
Nc1ncnc2nc(SCCN3CCCCC3)[nH]c12	> 4 mM (inactive)
CCOC(=O)c1c(C)nc2c(C#N)cnn2c1C	> 4 mM (inactive)
CC(=O)c1cccc(NS(=O)(=O)N2CCCCC2)c1	> 4 mM (inactive)
CN(C)C(=O)CSc1cccc2cccnc12	> 4 mM (inactive)
O=[N+]([O-])c1ccc2c(c1)N([O-])C1(CCCCC1)[N+]2=O	> 4 mM (inactive)
Cc1nnc(SCc2ccccc2)[nH]c1=O	> 4 mM (inactive)

SMILES	Kd
COC(=O)CCC(C)[C@H]1CCC2C3C(C[C@H](O)[C@@]21C)[C@@]1(C)CC[C@@H](O)C[C@H]1C[C@H]3O (some centres undefined)	> 4 mM (inactive)
Cn1nnc2cc(C(=O)NC3=NCCS3)ccc21	> 4 mM (inactive)
O=C1Nc2ccc(S(=O)(=O)NCCO)c3cccc1c23	> 4 mM (inactive)
Cc1ccc(CN2CCNC(=O)C2CC(=O)O)o1 (centres undefined)	> 4 mM (inactive)
CC(CC(=O)NN)C1(O)CCCCC1 (centres undefined)	> 4 mM (inactive)
c1ccc(Cc2nnc(-c3ccccc3)o2)cc1	> 4 mM (inactive)
Cc1nc(-c2ccccc2)ncc1C(=O)O	> 4 mM (inactive)
Cc1cc(C(=O)N2CCN(c3ncccn3)CC2)cs1	> 4 mM (inactive)
O=c1[nH]cc(Nc2ccccc2)c(=O)[nH]1	> 4 mM (inactive)
NCCc1cnc[nH]1	> 4 mM (inactive)
NCC(=O)c1ccccc1	> 4 mM (inactive)
OCCCc1nc2ccccc2[nH]1	> 4 mM (inactive)
CCC(=O)Nc1cc(C(C)C)c(O)cc1C	> 4 mM (inactive)
Cc1cc(C)n(C/C=C/Cn2nc(C)cc2C)n1	> 4 mM (inactive)
CCOC(=O)C1CCN(c2ncnc3nc[nH]c23)CC1	> 4 mM (inactive)
CC1=CCc2c(cc3oc(C)cc(=O)c3c2O)OC1	> 4 mM (inactive)
COC(=O)c1cccc(Cn2nnc3ccccc3c2=O)c1	> 4 mM (inactive)
O=[N+]([O-])c1cccc(-c2c[n+](=O)c3c(n2[O-])CCC3)c1	> 4 mM (inactive)
O=C(O)C1CCN(C(=O)c2cccs2)CC1	> 4 mM (inactive)
Cc1occc1C(=O)Nc1sccc1C(N)=O	> 4 mM (inactive)
O=C(c1ccncc1)N1CCN(C(=O)c2ccco2)CC1	> 4 mM (inactive)
Cc1nc(-c2cc(CO)no2)cs1	> 4 mM (inactive)
O=C(O)/C=C(\CC(=O)O)C(=O)O	> 4 mM (inactive)
COc1ccc(-c2cc(=O)c3c(O)cc(O)c(-c4cc(-c5cc(=O)c6c(O)cc(O)cc6o5)ccc4OC)c3o2)cc1	> 4 mM (inactive)

SMILES	Kd
O=C(O)CNCC(O)Cn1c2ccccc2c2ccccc21 (centres undefined)	> 4 mM (inactive)
CNC(=S)N1CCN(C(=O)c2ccco2)CC1	> 4 mM (inactive)
O=C(CS(=O)(=O)c1ccccc1)N1CCCCCC1	> 4 mM (inactive)
Cc1ccc2cc(C(=O)O)ccc2n1	> 4 mM (inactive)
C=CC(C1=CC(=O)C(OC)=CC1=O)c1ccc(O)cc1 (centres undefined)	> 4 mM (inactive)
Nc1ccc(N2CCOCC2)cc1	> 4 mM (inactive)
N[C@@H](C(=O)O)[C@@H](O)[C@H](O)[C@H](O)CO	> 4 mM (inactive)
COC(=O)C1[C@H]2C[C@H]3c4[nH]c5ccccc5c4CCN3C[C@@H]2CC[C@@H]1O (some centres undefined)	> 4 mM (inactive)
COC(=O)Cc1cccc(OC)c1	> 4 mM (inactive)
NC(=O)c1ccsc1NC(=O)c1cccnc1	> 4 mM (inactive)
C=C[C@@](C)(O)CCC1C(=C)C[C@H](O)C2C(C)(C)CCCC12C (some centres undefined)	> 4 mM (inactive)
COc1cc(-c2coc3cc(OCc4ccccc4)c(OC)c(O)c3c2=O)cc(O)c1OC	> 4 mM (inactive)
COc1ccc2c(c1)[n+](=O)c(C(C)=O)c(C)n2[O-]	> 4 mM (inactive)
Cc1occc1C(=O)Nc1nnc(C(F)(F)F)s1	> 4 mM (inactive)
COc1ccc(CC(=O)c2ccc(O)cc2O)cc1	> 4 mM (inactive)
CN(C)CCCN1CNC(=S)NC1	> 4 mM (inactive)
O=C(O)C1NCCc2ccccc21 (centres undefined)	> 4 mM (inactive)
Cc1cc(C(=O)Nc2ccon2)cs1	> 4 mM (inactive)
Cc1cccc(NC(=O)NC(N)=O)c1	> 4 mM (inactive)
O=C(c1ccccc1F)N1CCN(c2ccccc2)CC1	> 4 mM (inactive)
CC(=O)c1c(O)cc(C)n(Cc2ccccc2)c1=O	> 4 mM (inactive)
CC1(C)CC(=O)c2sc(N)nc2C1	> 4 mM (inactive)
O=C(O)c1cn(-c2ccccc2)nc1-c1cccnc1	> 4 mM (inactive)
Cc1ccnc(NS(=O)(=O)c2cccs2)c1	> 4 mM (inactive)

SMILES	Kd
CC(=O)O[C@]1(C)CC[C@@]23CC1C(C)(C)[C@@H]2CC[C@H]3C	> 4 mM (inactive)
O=C(O)CC1NCCNC1=O (centres undefined)	> 4 mM (inactive)
O=C(O)CCS(=O)(=O)c1ccccc1	> 4 mM (inactive)
CCOC(=O)c1c(C)nc2sccn12	> 4 mM (inactive)
CC[C@@]1(O)C[C@H](O[C@H]2C[C@H](N(C)C)[C@H](O)[C@H](C)O2)c2c(cc3c(c2O)C(=O)c2c(O)cccc2C3=O)[C@H]1C(=O)OC	> 4 mM (inactive)
CN(C)S(=O)(=O)Nc1ccc(Br)cc1F	> 4 mM (inactive)
O=C(O)CCn1c(=O)oc2ccccc21	> 4 mM (inactive)
NCc1ccc(-c2cccs2)s1	> 4 mM (inactive)
C=C(C)C1Cc2c(ccc(C(=O)O)c2O)O1 (centres undefined)	> 4 mM (inactive)
CC(=O)Nc1nnc(-c2ccncc2)s1	> 4 mM (inactive)
CC(=O)Nc1cccc(-c2nnc(-c3ccccc3)o2)c1	> 4 mM (inactive)
CCOC(=O)N1CCN(c2ncnc3c2cnn3C)CC1	> 4 mM (inactive)
COc1ccc(/C=C2/C(=O)N=C(N)N2C)cc1OC	> 4 mM (inactive)
Nc1cc(=O)[nH]c(SCC(=O)NCc2ccccc2)n1	> 4 mM (inactive)
Cc1ccc(C)n1NC(=O)c1cccs1	> 4 mM (inactive)
COc1c2occc2cc2ccc(=O)oc12	> 4 mM (inactive)
CC(=O)Nc1ccc(NC(C)=O)cc1	> 4 mM (inactive)
CSc1nc(C)cc(-n2ccc(=O)[nH]c2=O)n1	> 4 mM (inactive)
O=C1c2ccccc2C(=O)N1OCc1ccccc1	> 4 mM (inactive)
CC(=O)NC1=C(N(C)C)C(=O)c2ccccc2C1=O	> 4 mM (inactive)
CSc1n[nH]c(NCc2cccs2)n1	> 4 mM (inactive)
COc1ccc(Cl)cc1NC(=O)C(N)=O	> 4 mM (inactive)
Nc1cccnc1Oc1ccc(F)cc1F	> 4 mM (inactive)
